Results from US4782052A, “Octahydroindolo[2,3-a]quinolizin-1-yl-alkanecarboxylic acid amines and their therapeutically useful acid addition salts, pharmaceutical compositions containing them and process for preparing same” (Richter Gedeon Vegyeszeti Gyar Rt., priority 1984, dated 1988).
Where two headings read alike, the source gives them in different places.

What was measured:
[1] = test system: Indomethacin-induced intestinal ulceration; experiment: Inhibition of the Indomethacin-induced intestinal ulceration; type: in vivo, H-Wistar rats; details: for Tensile strength of the intestinal wall at 24 hours after the last treatment: 3 consecutive days, ± S.E.M., Indomethacin control 72 ± 10, untreated 237 ± 4; for Resistance of the intestinal wall as % of the normal value: Indomethacin control 30
Method: Inhibition of the Indomethacin-induced intestinal ulceration Unstarved H-Wistar rats weighing 120 to 150 g. were used for these investigations. The animals were orally treated with Indomethacin. Under these conditions a period of 24 to 48 hours is at least required for the development of visually observable intestinal ulcers. For evaluating the small intestine ulcers, the tensile strength of the intestinal wall was determined by using the inflation method of Ezer and Sporny (1975), as the strength of the intestinal wall is diminished by the ulceration-induced erosion. The small intestine from the pylorus down to the caecum was removed and after ligation of the end it was connected through a polyethylene tube with a W+W electronic BP 8005 pressure recorder (Ugo Basile, Italy). The whole small intestine was placed into a 0.9% saline solution at 37° C. and the pressure was increased until air bubbles appeared at the attenuated (weakened) sites of the intestinal wall. This pressure as expressed in mmHg is the measure of the tensile strength.

[2] = test system: ethanolic hydrochloric acid-induced gastric edema and hemorrhagic lesions; experiment: Inhibition of the ethanolic hydrochloric acid-induced gastric necrosis; type: in vivo, Female RG-Wistar rats; details: for Hemorrhagic lesions / Edema: ± S.E.M.; for Hemorrhagic lesions: control 132 ± 7; for Edema: control 349 ± 81; for ED50: Rattus norvegicus, oral
Method: Inhibition of the ethanolic hydrochloric acid-induced gastric necrosis Female RG-Wistar rats weighing 120 to 150 g. were used for these investigations. The animals were starved for 24 hours while receiving water ad libitum. […] The test substances were orally administered 30 minutes before the treatment with the ethanolic hydrochloric acid. One hour later the animals were killed by an overdose of ether. Their stomach was removed and cut along the major curvature. The stomach was cleaned and its wet weight was weighed. The gastric edema was calculated from the difference between the obtained wet weight and the wet weight of the stomach of the untreated animals. Thereafter, the stomach was dried at room temperature and the presence of the hemorrhagic lesions was visually observed on the next day. The degree of the gastric necrosis was characterized by the mean value of the damage in mm./stomach. The results were statistically evaluated by Student's test.

Oral toxicity in rats = details: rat, in vivo
[3] = test system: aspirin-induced stomach ulcer; experiment: Inhibition of the aspirin-induced stomach ulcer in rats; type: in vivo, Female H-Wistar rats; details: for No. of ulcers per stomach: ± S.E.M., aspirin control 16.6 ± 5
Method: Inhibition of the aspirin-induced stomach ulcer in rats
This test is very common in the pharmacological practice. Female H-Wistar rats weighing 120 to 150 g. were starved for 24 hours while receiving water ad libitum. The stomach ulcer was induced by the oral administration of 100 mg./kg. aspirin in a Tween 80 suspension. The test substance was given immediately after the aspirin treatment. At the end of the 4th hour after treatment the animals were killed by an overdose of ether, their stomach was excised and cut along the major curvature. The stomach content was washed out and the hemorrhagic lesions on the glandular surface were counted.

[4] = test system: gastric acid secretion in Shay rats; experiment: Inhibition of the gastric acid secretion in Shay rats; type: in vivo, Female H-Wistar rats; details: for HCl output (4 hours): N 5, control 520 ± 28
Method: Inhibition of the gastric acid secretion in Shay rats
Female H-Wistar rats weighing 120 to 150 g were starved for 24 hours while receiving water ad libitum. Then, the pylorus of the animals was ligated under a mild ether anesthesia. The test substances were administered orally or intraperitoneally. After 4 hours the animals were killed by an overdose of ether and after excision of the stomach, the volume and pH value of the gastric juice were measured. The acid content was determined by titration against 0.01N sodium hydroxide solution by using phenolphthalein as indicator.

[5] = 3 × (50 + 10) mg./kg. p.o. with Indomethacin
[6] = 3 × (25 + 10) mg./kg. p.o. with Indomethacin
[7] = 50 mg./kg. p.o., p < 0.01 vs control

SMILES: CN/C(=N/CCSCc1nc[nH]c1C)NC#N [Cimetidine, reference compound]
- Tensile strength of the intestinal wall at 24 hours after the last treatment [1, 5]: 20 ± 25 mmHg
- Resistance of the intestinal wall as % of the normal value [1, 5]: 8%
- Edema Inhibition ([2]; 100 mg./kg. p.o.): 14%
- Hemorrhagic lesions Inhibition ([2]; 100 mg./kg. p.o., p < 0.01 vs control): 69%
- Hemorrhagic lesions ([2]; 100 mg./kg. p.o., N 8): 42 ± 13 mm.
- Edema ([2]; 100 mg./kg. p.o., N 8): 301 ± 42 mg

SMILES: CN1CCN(CC(=O)N2c3ccccc3C(=O)Nc3cccnc32)CC1 [Pirenzepine, reference compound]
- Tensile strength of the intestinal wall at 24 hours after the last treatment [1, 5]: 121 ± 26 mmHg
- Resistance of the intestinal wall as % of the normal value [1, 5]: 51%

SMILES: CC[C@@]1(CCC(=O)N[C@H](C)c2ccccc2)CCCN2CCc3c([nH]c4ccccc34)[C@@H]21 [RGH-2961, (-)-(1S,12bS)-1-ethyl-1,2,3,4,6,7,12,12b-octahydroindolo[2,3-a]quinolizin-1-yl-propionic acid (R)-1-phenylethylamide]
- Tensile strength of the intestinal wall at 24 hours after the last treatment ([1]; 3 × (12 + 10) mg./kg. p.o. with Indomethacin): 132 ± 16 mmHg
- Tensile strength of the intestinal wall at 24 hours after the last treatment [1, 6]: 195 ± 8 mmHg
- Resistance of the intestinal wall as % of the normal value [1, 6]: 82%
- Tensile strength of the intestinal wall at 24 hours after the last treatment [1, 5]: 214 ± 6 mmHg
- Resistance of the intestinal wall as % of the normal value [1, 5]: 90%
- Resistance of the intestinal wall as % of the normal value ([1]; p.o. with Indomethacin): 55%
- Edema Inhibition ([2]; 1 mg./kg. p.o.): 0%
- Hemorrhagic lesions Inhibition ([2]; 1 mg./kg. p.o.): 36%
- Hemorrhagic lesions ([2]; 1 mg./kg. p.o., N 7): 88 ± 28 mm.
- Edema ([2]; 1 mg./kg. p.o., N 7): 345 ± 93 mg
- Edema Inhibition ([2]; 10 mg./kg. p.o.): 44%
- Hemorrhagic lesions Inhibition ([2]; 10 mg./kg. p.o., p < 0.01 vs control): 62%
- Hemorrhagic lesions ([2]; 10 mg./kg. p.o., N 7): 51 ± 9 mm.
- Edema ([2]; 10 mg./kg. p.o., N 7): 197 ± 52 mg
- Edema Inhibition [2, 7]: 85%
- Hemorrhagic lesions Inhibition [2, 7]: 88%
- Hemorrhagic lesions ([2]; 50 mg./kg. p.o., N 7): 17 ± 6 mm.
- Edema ([2]; 50 mg./kg. p.o., N 7): 53 ± 41 mg
- ED50 ([2]; gastric edema, read-out: oral ED50 value of the gastric edema inhibition): 12.5 mg/kg
- ED50 ([2]; hemorrhagic lesions, read-out: oral ED50 value of the gastric hemorrhagic lesion inhibition): 3 mg/kg
- LD50 (Oral toxicity in rats): > 1500 mg/kg
- No. of ulcers per stomach ([3]; 5 mg./kg. p.o. + aspirin 100 mg./kg., N 10): 7.1 ± 2
- Inhibition ([3]; 5 mg./kg. p.o., p < 0.01 vs aspirin control): 58%
- Inhibition ([3]; 10 mg./kg. p.o.): 32%
- No. of ulcers per stomach ([3]; 10 mg./kg. p.o. + aspirin 100 mg./kg., N 10): 11.0 ± 3
- No. of ulcers per stomach ([3]; 20 mg./kg. p.o. + aspirin 100 mg./kg., N 20): 3.5 ± 2.1
- Inhibition ([3]; 20 mg./kg. p.o., p < 0.01 vs aspirin control): 79%
- No. of ulcers per stomach ([3]; 50 mg./kg. p.o. + aspirin 100 mg./kg., N 10): 2.5 ± 1.5
- Inhibition ([3]; 50 mg./kg. p.o., p < 0.01 vs aspirin control): 85%
- ED50 ([3]; Rattus norvegicus, 4 h, aspirin-induced gastric ulcer formation, oral): 8 mg/kg
- HCl output inhibition ([4]; 6 mg./kg. i.p.): 19%
- HCl output (4 hours) ([4]; 6 mg./kg. i.p., ± S.E.M.): 425 ± 40 μmole/100 g. of body weight
- HCl output inhibition ([4]; 10 mg./kg. p.o.): 8%
- HCl output (4 hours) ([4]; 10 mg./kg. p.o., ± S.E.M.): 483 ± 40 μmole/100 g. of body weight
- HCl output inhibition ([4]; 12 mg./kg. i.p., p < 0.01 vs control): 63%
- HCl output (4 hours) ([4]; 12 mg./kg. i.p., ± S.E.M.): 195 ± 25 μmole/100 g. of body weight
- HCl output inhibition ([4]; 20 mg./kg. p.o.): 10%
- HCl output (4 hours) ([4]; 20 mg./kg. p.o., ± S.E.M.): 468 ± 35 μmole/100 g. of body weight
- HCl output inhibition ([4]; 25 mg./kg. i.p.): 100%
- HCl output (4 hours) ([4]; 25 mg./kg. i.p.): 0 μmole/100 g. of body weight
- HCl output inhibition ([4]; 40 mg./kg. p.o.): 22%
- HCl output (4 hours) ([4]; 40 mg./kg. p.o., ± S.E.M.): 409 ± 30 μmole/100 g. of body weight
